Consider one molecule from paper PMC11775380, “Discovery of Novel Nav1.7-Selective Inhibitors with the 1H-Indole-3-Propionamide Scaffold for Effective Pain Relief” (Research, 2025).

Data set [1] concerns CFA inflammatory pain model of mice. Description: CFA-induced inflammatory (chronic) pain model. The class given is in vivo, ICR mice. The conditions noted are these: for Paw withdrawal threshold (PWT) at 1.5 h: 1.5 h post drug, 24 h after CFA. The procedure: The chronic pain model of mice was often used to simulate persistent pain in humans. In this model, chronic persistent pain was induced by injecting complete Freund’s adjuvant (CFA) into the right hind foot of mice. […] The chronic analgesic potential of WN2-R was evaluated using both i.g. and i.m. methods (n = 4). When administered by i.g., the PWTs of the WN2-R group and the PF-05089771 group reached their peak at 1.5 and 1 h after administration, respectively, and subsequently declined to the same level as the saline group at 2.5 h (Fig. 6D). […] When administered i.m., both the WN2-R and PF-05089771 groups reached peak PWTs at 1.5 h, and declined to the saline group level at 3 h (Fig. 6K). […] The mechanical allodynia of ICR mice (2 male and 2 female) was assessed prior to model construction using von Frey fibers according to the up–down method. Mice with paw withdraw thresholds (PWTs) remarkably deviating from the mean value were excluded from further experiments. Subsequently, 15 μl of CFA was unilaterally injected into the intraplantar surface of the right hind paw of each mice. After 24 h, the PWTs of the mice were assessed. During the i.g. administration of drugs or saline, PWTs were measured 0, 0.5, 1, 1.5, 2, and 2.5 h post drugs/saline administration. Similarly, during i.m. administration, PWTs were measured at 0, 0.5, 1, 1.5, 2, 2.5, and 3 h post drugs/saline administration.

The subject of data set [2] is SNI neuropathic pain model in mice. Description: Spared nerve injury (SNI) neuropathic pain model. In kind it is in vivo, C57 mice. The source says: Peripheral nerve injury models were developed to investigate the mechanisms of neuropathic pain. One such model, the spared nerve injury (SNI) neuropathic pain model in mice, involved ligating and transecting the […] and tibial nerves within the […] nerve, while leaving the sural nerve untouched. […] To evaluate the neuroanalgesic potential of WN2-R in this model, both i.g. and i.m. routes were used to evaluate the neuroanalgesic effect of WN2-R in this model (n = 5). […] In contrast, PF-05089771 reached its peak at 1 h (PWTs = 1.08 g) but then rapidly lost its efficacy, resembling the saline control group after 1 h. Throughout the experiment, the PWTs of the WN2-R group remained consistently higher than that of the PF-05089771 group (Fig. 6F and G). […] Subsequently, the efficacy of both drugs gradually declined, converging with the saline group after 3 h. Throughout the entire dosing period, the PWTs of the WN2-R group were slightly higher than that of the PF-05089771 group (Fig. 6M and N). […] To elucidate the time course of pain hypersensitivity induced by SNI, the behavioral responses (mechanical testing with von Frey fibers) were measured before surgery (baseline value) in C57 mice (5 female). Then, the mice underwent SNI surgery, which involved ligation and axotomy of the common peroneal and tibial nerves, while sparing the sural nerve. Sham-operated mice served as controls, with their nerves remaining intact. To confirm the presence of pain hypersensitivity in the SNI group, behavioral testing was carried out 14 days after SNI in each animal. Post drugs/saline administration, PWTs were measured at 0, 0.5, 1, 1.5, 2, 2.5, and 3 h for the i.g. route, and at 0, 0.5, 1, 2, 3, and 4 h for the i.m. route.

The test system of data set [3] is acetic acid writhing pain model in mice. Description: Acetic acid-induced writhing test. In kind it is in vivo, ICR mice. The conditions noted are these: 15 min before acetic acid, writhing counted 30 min. From the text: Acute pain was a common type of pain with considerable value for drug development. Here, 2 acute inflammatory pain models were used to verify the acute analgesic effect of WN2-R. One such model, the acetic acid writhing pain model in mice, is a well-established acute visceral pain model. It simulates clinically relevant intestinal discomfort by stimulating the abdominal mucosa and intestine with acetic acid and has been extensively used to screen analgesic or anti-inflammatory drugs. Based on this model, we evaluated the acute analgesic effect of WN2-R using 2 drug delivery methods, i.g. and […] (n = 6). […] Furthermore, the analgesic effect of WN2-R at the same dose was similar to that of the positive control drug PF-05089771, with no significant difference between these two. […] Three male and 3 female ICR mice were used in the acetic acid-induced writhing test. Mice were preadministered with either WN2-R (5 mg/kg i.g., 1 mg/kg i.m.), PF05089771 (5 mg/kg i.g., 1 mg/kg i.m.), or saline 15 min before i.p. injection of 0.2 ml of acetic acid (0.8%, V/V). Each mouse was then placed in an individual open polyvinyl cage (30 cm × 40 cm × 30 cm). The number of writhing responses, characterized by a wave of abdominal muscle contraction followed by hind limb extension, was recorded for 30 min after acetic acid injection. These responses served as an indication of nociceptive intensity. The percentage of inhibition was calculated using the following equation: Inhibition% = (Writhing Numbervehicle – Writhing Numberdrug)/Writhing Numbervehicle × 100% [15, 47].
On the technique in general: Writhing tests count abdominal constrictions after an irritant is injected.

Data set [4] has as its system formalin-induced acute inflammatory pain model in mice. Description: Formalin-induced inflammation pain model. Particulars: 30 min before formalin. The class given is in vivo, ICR mice. The procedure: The formalin-induced acute inflammatory pain model in mice, achieved through the plantar injection of formalin aqueous solution, is another widely used model for acute inflammatory pain. This model comprises 2 stages: an initial phase ([…]) where pain is triggered by formalin's direct stimulation of nociceptive receptors on sensory neurons, followed by a second phase (15 to 40 min) characterized by persistent inflammatory pain due to tissue damage. Similarly, both i.g. and i.m. methods were used to evaluate the effect of WN2-R in this model (n = 6) (Fig. 6B and I). […] These findings were consistent across repeated experiments.
To induce the pain response, 20 μl of formalin (5%, w/v) was injected subcutaneously into the right hind paw of ICR mice (3 male and 3 female). Prior to the formalin injection, mice were preadministered with WN2-R (5 mg/kg i.g., 1 mg/kg i.m.), PF05089771 (5 mg/kg i.g., 1 mg/kg i.m.), or saline 30 min beforehand. The duration of licking/biting the injected paw was recorded every 5 min, commencing immediately after the formalin injection and continuing for 40 min. Phase I and II in this assay corresponded to the nociceptive response observed between 0 and 5 min and between 10 and 40 min, respectively.

On the set-up of data set [5]: method as in PMID 28682065. Particulars: positive control drug; cited from earlier work.

As for `Nc1[nH]ncc1-c1cc(Cl)ccc1Oc1cc(F)c(S(=O)(=O)Nc2cscn2)cc1Cl` [PF-05089771, 4-[2-(5-amino-1H-pyrazol-4-yl)-4-chlorophenoxy]-5-chloro-2-fluoro-N-1,3-thiazol-4-ylbenzenesulfonamide, reference compound], in data set [1] (i.g.), the “Time at which PWT declined to the saline group level” value came out at 2.5 h, the “Time of peak PWT after administration” value worked out at 1 h and the “Paw withdrawal threshold (PWT) at 1.5 h” value is given as 1.32 g. Moreover, in data set [1] (i.m.), the “Time at which PWT declined to the saline group level” value is given as 3 h, the “Time of peak PWT after administration” value is listed as 1.5 h and the “Paw withdrawal threshold (PWT) at 1.5 h” value amounted to 1.83 g. In addition, the “Time of peak efficacy” value in data set [2] (i.g.) is reported as 1 h. In addition, the “Paw withdrawal threshold (PWTs)” value in data set [2] (i.g., 1 h post drug application, 14 days after SNI) is reported as 1.08 g. For the same molecule, in data set [2] (i.m.), the “Time after which efficacy converged with the saline group” value is recorded as 3 h and the “Time of peak efficacy” value is listed as 1 h. The “Paw withdrawal threshold (PWTs) at peak efficacy” value in data set [2] (i.m., 1 h post drug application, 14 days after SNI) is listed as 1.30 g. The “Analgesic rate (normalized number of writhing)” value in data set [3] (i.g., 5 mg/kg) was 53.5%. The “Analgesic rate (normalized number of writhing)” value in data set [3] (i.p. (method: 1 mg/kg i.m.)) is 51.9%. Besides, in data set [4] (i.g., 5 mg/kg), the “Licking time in phase I vs saline” value is given as “significantly reduced licking time” and the “Licking time in phase II vs saline” value was “decreased effectiveness”. For the same molecule, in data set [4] (i.m., 1 mg/kg), the “Licking time in phase I vs saline” value is “significantly reduced licking time” and the “Licking time in phase II vs saline” value was “significantly reduced licking time”. For the same molecule, in data set [5], the “F (bioavailability)” value is listed as 27%.
